Target: T1, Nuclear receptor ROR-gamma (Homo sapiens, UniProt P51449)
T1 sequence (P51449 whole entry): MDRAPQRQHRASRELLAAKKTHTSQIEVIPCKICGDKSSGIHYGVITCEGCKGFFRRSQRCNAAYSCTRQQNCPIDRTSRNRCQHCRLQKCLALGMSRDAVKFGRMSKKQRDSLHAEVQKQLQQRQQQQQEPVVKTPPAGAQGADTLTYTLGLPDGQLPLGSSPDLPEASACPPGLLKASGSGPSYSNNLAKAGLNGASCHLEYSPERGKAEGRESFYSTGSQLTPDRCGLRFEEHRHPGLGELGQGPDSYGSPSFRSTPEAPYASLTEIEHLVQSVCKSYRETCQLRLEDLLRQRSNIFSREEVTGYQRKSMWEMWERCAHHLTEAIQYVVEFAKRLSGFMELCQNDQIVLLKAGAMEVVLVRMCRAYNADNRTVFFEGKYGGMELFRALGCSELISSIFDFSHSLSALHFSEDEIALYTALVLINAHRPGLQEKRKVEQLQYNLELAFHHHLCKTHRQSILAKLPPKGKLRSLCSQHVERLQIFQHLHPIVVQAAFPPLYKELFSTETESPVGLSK
Assay: Fluorescence Based Assay: ThermoFluor is a fluorescence based assay that estimates ligand binding affinities by measuring the effect of a ligand on protein thermal stability (Pantoliano, M. W., Petrella, E. C., Kwasnoski, J. D., Lobanov, V. S., Myslik, J., Graf, E., Carver, T., Asel, E., Springer, B. A., Lane, P., and Salemme, F. R. (2001) High-density miniaturized thermal shift assays as a general strategy for drug discovery. J Biomol Screen 6, 429-40, and Matulis, D., Kranz, J. K., Salemme, F. R., and Todd, M. J. (2005) Thermodynamic stability of carbonic anhydrase: measurements of binding affinity and stoichiometry using ThermoFluor. Biochemistry 44, 5258-66). This approach is applicable to a wide variety of systems, and rigorous in theoretical interpretation through quantitation of equilibrium binding constants (KD).

Kd	SMILES
0.087 µM	CCc1nc(C(=O)NC[C@]2(O)CC[C@@H](S(C)(=O)=O)CC2)c(Cl)n1-c1ncc(CCCC(F)(F)F)cc1OC(F)F
0.015 µM	CCc1nc(C(=O)NC[C@H]2CC[C@H](S(C)(=O)=O)CC2)c(Cl)n1-c1ncc(CCCC(F)(F)F)cc1OC(F)F
0.023 µM	CCc1nc(C(=O)NC[C@]2(O)CC[C@@H](S(C)(=O)=O)CC2)c(C)n1-c1ncc(CC(C)(C)C(F)(F)F)cc1OC(F)F
